Measurements published in ChEMBL document CHEMBL1153189, “The comparative antimalarial properties of weak base and neutral synthetic ozonides” (Bioorg Med Chem Lett, 2010).
Values after ≈ are worked out from the molar mass of the structure shown.

Tests used:
[1] = tested on: Plasmodium falciparum; assay: Antimalarial activity against chloroquine-sensitive Plasmodium falciparum NF54; type: functional, organism-based
[2] = tested on: Plasmodium falciparum; assay: Antimalarial activity against chloroquine-resistant Plasmodium falciparum K1; type: functional, organism-based
[3] = tested on: Plasmodium berghei; assay: Antimalarial activity against Plasmodium berghei infected in NMRI mice (Mus musculus) assessed as reduction in parasitaemia at 10 mg/kg, perorally administered 1 day post infection; type: functional; parameters: scale not given: the % may be the effect or the level left; conditions: route oral
[4] = tested on: Plasmodium berghei; assay: Antimalarial activity against Plasmodium berghei infected in NMRI mice (Mus musculus) assessed as cure rat at 3 mg/kg, perorally administered for 3 days post infection measured after 30 days; type: functional; conditions: route oral
[5] = tested on: Plasmodium berghei; assay: Antimalarial activity against Plasmodium berghei infected in NMRI mice (Mus musculus) assessed as reduction in parasitaemia at 3 mg/kg, perorally administered for 3 days post infection; type: functional; parameters: scale not given: the % may be the effect or the level left; conditions: route oral
[6] = Half life in Sprague-Dawley rat at 10 mg/kg, iv; type: ADME, organism-based; parameters: dose 10 mg/kg, route intravenous; conditions: Sprague-Dawley, in vivo
[7] = Volume of distribution in Sprague-Dawley rat at 10 mg/kg, iv; type: ADME, organism-based; parameters: dose 10 mg/kg, route intravenous; conditions: Sprague-Dawley, in vivo
[8] = Blood clearance in Sprague-Dawley rat at 10 mg/kg, iv; type: ADME, organism-based; parameters: dose 10 mg/kg, route intravenous; conditions: whole blood
[9] = tested on: Plasmodium berghei; assay: Antimalarial activity against Plasmodium berghei infected in NMRI mice (Mus musculus) assessed as survival time at 3 mg/kg, perorally administered for 3 days post infection; type: functional; conditions: route oral

Cc1ccc(S(=O)(=O)O)cc1.O=C(CNCC1CC1)NC[C@H]1CC[C@]2(CC1)OO[C@]1(O2)C2CC3CC(C2)CC1C3
IC50 [1]: 1.2 ng/mL
IC50 [2]: 0.36 ng/mL

Cc1ccc(S(=O)(=O)O)cc1.O=C(CNC1CC1)NC[C@H]1CC[C@]2(CC1)OO[C@]1(O2)C2CC3CC(C2)CC1C3
IC50 [1]: 1.2 ng/mL
Activity [3]: 99.6%
IC50 [2]: 0.39 ng/mL

CC(C)(N)C(=O)NC[C@H]1CC[C@]2(CC1)OO[C@]1(O2)C2CC3CC(C2)CC1C3
Activity [4]: 0%
IC50 [1]: 0.36 ng/mL (≈ 0.951 nM)
Activity [3]: 99.9%
IC50 [2]: 0.5 ng/mL (≈ 1.32 nM)
Activity [5]: >99.9%

O=C(NC[C@H]1CC[C@]2(CC1)OO[C@]1(O2)C2CC3CC(C2)CC1C3)c1ccccn1
Activity [3]: 98%

Cc1ccc(S(=O)(=O)O)cc1.Cc1ccc(S(=O)(=O)O)cc1.O=C(CN1CCNCC1)NC[C@H]1CC[C@]2(CC1)OO[C@]1(O2)C2CC3CC(C2)CC1C3
IC50 [1]: 1.4 ng/mL
Activity [3]: 99.7%
IC50 [2]: 0.59 ng/mL

CN1CCN(C(=O)NC[C@H]2CC[C@]3(CC2)OO[C@]2(O3)C3CC4CC(C3)CC2C4)CC1
IC50 [1]: 0.34 ng/mL (≈ 0.81 nM)
Activity [3]: 99.9%
IC50 [2]: 0.2 ng/mL (≈ 0.477 nM)

O=C(O)C(=O)NC[C@H]1CC[C@]2(CC1)OO[C@]1(O2)C2CC3CC(C2)CC1C3
IC50 [1]: 59 ng/mL (≈ 161 nM)
Activity [3]: <40%
IC50 [2]: 58 ng/mL (≈ 159 nM)

Nc1n[nH]c(C(=O)NC[C@H]2CC[C@]3(CC2)OO[C@]2(O3)C3CC4CC(C3)CC2C4)n1
Activity [3]: 99.8%

O=C1CNC(=O)N1C[C@H]1CC[C@]2(CC1)OO[C@]1(O2)C2CC3CC(C2)CC1C3
IC50 [1]: 2.7 ng/mL (≈ 7.17 nM)
Activity [3]: 92%
IC50 [2]: 1 ng/mL (≈ 2.66 nM)

NC(=O)NC[C@H]1CC[C@]2(CC1)OO[C@]1(O2)C2CC3CC(C2)CC1C3
IC50 [1]: 1.6 ng/mL (≈ 4.76 nM)
Activity [3]: 98%
IC50 [2]: 0.56 ng/mL (≈ 1.66 nM)

CS(=O)(=O)O.O=C(NC[C@H]1CC[C@]2(CC1)OO[C@]1(O2)C2CC3CC(C2)CC1C3)C(=O)N1CCNCC1
IC50 [1]: 0.54 ng/mL
Activity [3]: 99.9%
IC50 [2]: 0.69 ng/mL

O=C(NC[C@H]1CC[C@]2(CC1)OO[C@]1(O2)C2CC3CC(C2)CC1C3)c1cccnc1
Activity [3]: 99.6%
IC50 [2]: 0.97 ng/mL (≈ 2.43 nM)

C[C@H]1[C@@H](O)O[C@@H]2O[C@@]3(C)CC[C@H]4[C@H](C)CC[C@@H]1[C@@]24OO3 [ARTENIMOL]
half-life [6]: 26 min
Vd [7]: 3 L/kg
clearance [8]: 72 mL/min/kg

O=CNCC(=O)NC[C@H]1CC[C@]2(CC1)OO[C@]1(O2)C2CC3CC(C2)CC1C3
Activity [3]: 98%
IC50 [2]: 0.9 ng/mL (≈ 2.38 nM)

CS(=O)(=O)CC(=O)NCC1CC[C@]2(CC1)OO[C@]1(O2)C2CC3CC(C2)CC1C3 (some centres not stated)
Activity [3]: 99.2%

CS(=O)(=O)O.O=C(NC[C@H]1CC[C@]2(CC1)OO[C@]1(O2)C2CC3CC(C2)CC1C3)C(=O)NC1CCNCC1
Activity [4]: 20%
IC50 [1]: 0.79 ng/mL
Activity [3]: >99.9%
Survival [9]: 22.4 days
IC50 [2]: 0.56 ng/mL
Activity [5]: >99.9%

Cc1ccc(S(=O)(=O)O)cc1.O=C(NC[C@H]1CC[C@]2(CC1)OO[C@]1(O2)C2CC3CC(C2)CC1C3)N1CCNCC1
Activity [4]: 40%
IC50 [1]: 0.68 ng/mL
Activity [3]: >99.9%
Survival [9]: 27 days
IC50 [2]: 0.43 ng/mL
Activity [5]: >99.9%

NC(=O)C(=O)NC[C@H]1CC[C@]2(CC1)OO[C@]1(O2)C2CC3CC(C2)CC1C3
IC50 [1]: 0.71 ng/mL (≈ 1.95 nM)
Activity [3]: 99.5%
IC50 [2]: 0.44 ng/mL (≈ 1.21 nM)

Cc1ccc(S(=O)(=O)O)cc1.NCCC(=O)NC[C@H]1CC[C@]2(CC1)OO[C@]1(O2)C2CC3CC(C2)CC1C3
Activity [4]: 0%
Activity [3]: 99.9%
Survival [9]: 20.8 days
Activity [5]: >99.9%
